The term IC50 denotes the midpoint of a concentration-inhibition curve.

This passage reports IC50 and IC95 results from ChEMBL document CHEMBL1139785, “Synthesis of novel HIV protease inhibitors (PI) with activity against PI-resistant virus” (Bioorg Med Chem Lett, 2007).

The nature of assay [1]: Inhibition of HIV1 NL4-3 protease V18C mutant. Details: species or system Human immunodeficiency virus 1.
The target in another assay is Protease (Human immunodeficiency virus 1, UniProt Q9YQ12). The assay is described as follows: Inhibition of wild type HIV1 NL4-3 protease.
Assay [2] can be described thus: Inhibition of HIV1 NL4-3 protease K60C mutant. Details: species or system Human immunodeficiency virus 1.
The test system of assay [3] is Human immunodeficiency virus 1. The assay is described as follows: Antiviral activity against HIV1 NL4-3 in MT4 cells by viral spread assay. It is filed as functional. Conditions: Human immunodeficiency virus 1, NL4-3, MT4; read-out: CIC95.
The subject of assay [4] is Human immunodeficiency virus 1. The assay can be described thus: Antiviral activity against HIV1 with protease V18C mutant in MT4 cells by viral spread assay. Conditions: Human immunodeficiency virus 1, MT4; read-out: CIC95.
Assay [5] concerns Human immunodeficiency virus 1. The assay is described as follows: Antiviral activity against HIV1 with protease K60C mutant in MT4 cells by viral spread assay. Conditions: Human immunodeficiency virus 1, MT4; read-out: CIC95.

Structures are written as SMILES.

Sequence of Protease (Q9YQ12 whole entry): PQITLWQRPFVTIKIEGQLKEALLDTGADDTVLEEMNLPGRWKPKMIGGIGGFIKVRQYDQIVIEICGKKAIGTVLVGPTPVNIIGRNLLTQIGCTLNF

Turning to `Cc1noc(C)c1CNC(=O)[C@H]1N(C(=O)[C@@H](O)C[C@@H](Cc2ccccc2)C(=O)N[C@H]2c3ccccc3OC[C@H]2O)COC12CCCC2`, the figures for the half-inhibitory concentration (IC50) (in assay [1]; on Protease; in assay [2]) were 3.2 nM, 0.2 nM and 1.5 nM, respectively. In addition, the results for the IC95 in assay [3], in assay [4] and in assay [5] were 250 nM, 1000 nM and 500 nM, respectively.

`Cc1cccc(C)c1CNC(=O)[C@@H]1CCN1C(=O)[C@@H](O)C[C@@H](Cc1ccccc1)C(=O)N[C@H]1c2ccccc2OC[C@H]1O` had a 50% inhibitory concentration (IC50) on Protease of 90 nM. In assay [3], the IC95 amounted to 1000 nM.

Turning to `Cc1cccc(C)c1CNC(=O)[C@@H]1CCCN1C(=O)[C@@H](O)C[C@@H](Cc1ccccc1)C(=O)N[C@H]1c2ccccc2OC[C@H]1O`, at Protease, the IC50 was found to be 14 nM. Moreover, in assay [3], the IC95 was 1000 nM.

Take `Cc1nsc(C)c1CNC(=O)[C@H]1N(C(=O)[C@@H](O)C[C@@H](Cc2ccccc2)C(=O)N[C@H]2c3ccccc3OC[C@H]2O)COC12CCCC2`: the IC50 in assay [1] came out at 0.8 nM; against Protease it was 0.1 nM; in assay [2] it was 0.4 nM. For the same molecule, the values for the IC95 in assay [3], in assay [4] and in assay [5] were 125 nM, 250 nM and 250 nM, respectively.

For `CC(C)(C)NC(=O)[C@@H]1CN(Cc2cccnc2)CCN1C[C@@H](O)CC(Cc1ccccc1)C(=O)N[C@H]1c2ccccc2C[C@H]1O` (single isomer, unassigned), the concentration for half-maximal inhibition (IC50) in assay [1] was 43.6 nM; in assay [2] it was 61 nM. Further, the IC95 stood at 45 nM in assay [3], 890 nM in assay [4] and 1000 nM in assay [5].

In the case of `Cc1cccc(C)c1CNC(=O)[C@H]1N(C(=O)[C@@H](O)C[C@@H](Cc2ccccc2)C(=O)N[C@H]2c3ccccc3OC[C@H]2O)COC12CCCC2`, the IC50 in assay [1] stood at 0.5 nM; on Protease, 0.1 nM. For the same molecule, the IC95 in assay [3] is 8 nM; in assay [4], 62 nM; in assay [5], 125 nM.

The molecule `Cc1cccc(C)c1CNC(=O)[C@@H]1CCCCN1C(=O)[C@@H](O)C[C@@H](Cc1ccccc1)C(=O)N[C@H]1c2ccccc2OC[C@H]1O` gave a half-maximal inhibitory concentration (IC50) at Protease of 42 nM. In addition, the IC95 in assay [3] came to 1000 nM.

Consider `Cc1cccc(C)c1CNC(=O)[C@H]1N(C(=O)[C@@H](O)C[C@@H](Cc2ccccc2)C(=O)N[C@H]2c3ccccc3OC[C@H]2O)CCC1(C)C`, for which the figures for the IC50 (in assay [1]; against Protease; in assay [2]) were 0.4 nM, 0.14 nM and 1.6 nM, respectively. Further, the IC95 in assay [3] worked out at 15 nM; in assay [4], 31 nM; in assay [5], 500 nM.

On Protease, `Cc1cccc(C)c1CNC(=O)[C@H]1N(C(=O)[C@@H](O)C[C@@H](Cc2ccccc2)C(=O)N[C@H]2c3ccccc3OC[C@H]2O)CSC1(C)C` came in with an IC50 of 0.03 nM. The IC95 in assay [3] was 15 nM.

Regarding `Cc1cccc(C)c1CNC(=O)[C@H]1N(C(=O)[C@@H](O)C[C@@H](Cc2ccccc2)C(=O)N[C@H]2c3ccccc3OC[C@H]2O)COC1(C)C`, the results for the concentration for half-maximal inhibition (IC50) (in assay [1]; on Protease; in assay [2]) were 1.3 nM, 0.17 nM and 2.2 nM, respectively. The IC95 stood at 15 nM in assay [3], 62 nM in assay [4] and 500 nM in assay [5].

For `O=C(N[C@H]1c2ccccc2OC[C@H]1O)[C@H](Cc1ccccc1)C[C@H](O)C(=O)N1COC2(CCCC2)[C@H]1C(=O)NCc1c(Cl)cccc1Cl`, the IC50 in assay [1] is 1 nM; against Protease, 0.11 nM; in assay [2], 0.5 nM. In addition, the IC95 was 62.5 nM in assay [3], 500 nM in assay [4] and 250 nM in assay [5].
